Laboratory results reported in article PMC4890880 (ACS infectious diseases, 2016).
Like-named read-outs stand apart in the source and are kept apart here.

Experiments:
[1] = tested on: HepG2-A16-CD81EGFP cells; details: for IC50: read-out: Tox_IC50, HepG2 cytotoxicity
[2] = tested on: Plasmodium berghei (Pb-Luc) exoerythrocytic-stage parasites; details: for normalised signal at concentration 10 (first series): concentration 10, first series of dose columns; for normalised signal at concentration 10 (second series): concentration 10, second series of dose columns; for IC50: read-out: PbLuc_IC50, Broad compounds; for normalized signal at concentration 10 / normalized signal at concentration 0.000508053 / normalized signal at concentration 0.00152416 / normalized signal at concentration 0.00457247 / normalized signal at concentration 0.0137174 / normalized signal at concentration 0.0411523 / normalized signal at concentration 0.123457 / normalized signal at concentration 0.37037 / normalized signal at concentration 1.11111 / normalized signal at concentration 3.33333: fraction of control
[3] = sheet "2nd round", dose response top concentration 10
[4] = sheet 2nd round, maximal inhibition in dose response
[5] = first series of dose-response columns
[6] = second series of dose-response columns

Structure (SMILES): COc1ccc2c3c([nH]c2c1)[C@H](CO)N(Cc1ccccc1)CC31CN(C(=O)c2ccccn2)C1 [BRD-K93348054-001-01-9]
- IC50 ([1]; sheet "2nd round"): > 10 µM
- Tox_max_inhibition (%) ([1]; sheet "2nd round"): 18%
- normalised signal at concentration 0.000508053 (first series) [2]: 1.077
- normalised signal at concentration 0.000508053 (second series) [2]: 1.157
- normalised signal at concentration 0.00152416 (first series) [2]: 0.9906
- normalised signal at concentration 0.00152416 (second series) [2]: 0.8767
- normalised signal at concentration 0.00457247 (first series) [2]: 0.8635
- normalised signal at concentration 0.00457247 (second series) [2]: 1.079
- normalised signal at concentration 0.0137174 (first series) [2]: 1.042
- normalised signal at concentration 0.0137174 (second series) [2]: 0.9363
- normalised signal at concentration 0.0411523 (first series) [2]: 0.9232
- normalised signal at concentration 0.0411523 (second series) [2]: 0.9999
- normalised signal at concentration 0.123457 (first series) [2]: 0.9966
- normalised signal at concentration 0.123457 (second series) [2]: 1.053
- normalised signal at concentration 0.37037 (first series) [2]: 0.8299
- normalised signal at concentration 0.37037 (second series) [2]: 0.8736
- normalised signal at concentration 1.11111 (first series) [2]: 0.8048
- normalised signal at concentration 1.11111 (second series) [2]: 0.7
- normalised signal at concentration 3.33333 (first series) [2]: 0.6468
- normalised signal at concentration 3.33333 (second series) [2]: 0.6466
- normalised signal at concentration 10 (first series) [2]: 0.6758
- normalised signal at concentration 10 (second series) [2]: 0.621
- IC50 [2, 3]: > 10 µM
- PbLuc_max_inhibition (%) ([2]; sheet "2nd round"): 38%

Structure (SMILES): CCc1csc(N2[C@H](CO)[C@H](c3ccccc3)[C@@H]2CNC)n1 [BRD-K87640608-001-01-8]
- IC50 ([1]; sheet 2nd round): > 10 µM
- Tox_max_inhibition (%) [1, 4]: 3.76%
- normalized signal at concentration 10 [2, 5]: 0.6764
- normalized signal at concentration 0.000508053 ([2]; first series): 0.8428
- normalized signal at concentration 0.00152416 ([2]; first series): 0.8502
- normalized signal at concentration 0.00457247 ([2]; first series): 0.7149
- normalized signal at concentration 0.0137174 ([2]; first series): 0.7931
- normalized signal at concentration 0.0411523 ([2]; first series): 0.9257
- normalized signal at concentration 0.123457 ([2]; first series): 0.8195
- normalized signal at concentration 0.37037 ([2]; first series): 0.9077
- normalized signal at concentration 1.11111 ([2]; first series): 1.056
- normalized signal at concentration 3.33333 ([2]; first series): 0.9058
- IC50 ([2]; sheet 2nd round, dose response): > 10 µM
- normalized signal at concentration 10 [2, 6]: 0.7611
- normalized signal at concentration 0.000508053 ([2]; second series): 1.024
- normalized signal at concentration 0.00152416 ([2]; second series): 0.9242
- normalized signal at concentration 0.00457247 ([2]; second series): 1.045
- normalized signal at concentration 0.0137174 ([2]; second series): 0.9989
- normalized signal at concentration 0.0411523 ([2]; second series): 0.8698
- normalized signal at concentration 0.123457 ([2]; second series): 0.9345
- normalized signal at concentration 0.37037 ([2]; second series): 1.174
- normalized signal at concentration 1.11111 ([2]; second series): 1.035
- normalized signal at concentration 3.33333 ([2]; second series): 0.7843
- PbLuc_max_inhibition (%) [2, 4]: 32%

Structure (SMILES): O=S(=O)(c1cccs1)N1CCCCN2[C@H](CO)[C@H](c3ccc(/C=C/c4ccccc4)cc3)[C@H]2C1 [BRD-K20449903-001-01-6]
- IC50 ([1]; sheet 2nd round): > 10 µM
- Tox_max_inhibition (%) [1, 4]: 9%
- normalized signal at concentration 10 [2, 5]: 0.52
- normalized signal at concentration 0.000508053 ([2]; first series): 1.07
- normalized signal at concentration 0.00152416 ([2]; first series): 1.07
- normalized signal at concentration 0.00457247 ([2]; first series): 0.84
- normalized signal at concentration 0.0137174 ([2]; first series): 1.09
- normalized signal at concentration 0.0411523 ([2]; first series): 0.93
- normalized signal at concentration 0.123457 ([2]; first series): 1.01
- normalized signal at concentration 0.37037 ([2]; first series): 1.01
- normalized signal at concentration 1.11111 ([2]; first series): 1.05
- normalized signal at concentration 3.33333 ([2]; first series): 1.18
- IC50 ([2]; sheet 2nd round, dose response): > 10 µM
- normalized signal at concentration 10 [2, 6]: 0.70
- normalized signal at concentration 0.000508053 ([2]; second series): 0.94
- normalized signal at concentration 0.00152416 ([2]; second series): 1.05
- normalized signal at concentration 0.00457247 ([2]; second series): 0.96
- normalized signal at concentration 0.0137174 ([2]; second series): 1.06
- normalized signal at concentration 0.0411523 ([2]; second series): 1.19
- normalized signal at concentration 0.123457 ([2]; second series): 1.23
- normalized signal at concentration 0.37037 ([2]; second series): 0.91
- normalized signal at concentration 1.11111 ([2]; second series): 1.04
- normalized signal at concentration 3.33333 ([2]; second series): 1.04
- PbLuc_max_inhibition (%) [2, 4]: 48%

Structure (SMILES): C[C@H]1CN([C@@H](C)CO)C(=O)c2cc(C#Cc3ccccc3)cnc2O[C@H]1CN(C)C(=O)c1ccccc1 [BRD-K12503654-001-01-1]
- IC50 ([1]; sheet 2nd round): > 10 µM
- Tox_max_inhibition (%) [1, 4]: 5.33%
- normalized signal at concentration 10 [2, 5]: 0.56
- normalized signal at concentration 0.000508053 ([2]; first series): 1.00
- normalized signal at concentration 0.00152416 ([2]; first series): 1.04
- normalized signal at concentration 0.00457247 ([2]; first series): 1.07
- normalized signal at concentration 0.0137174 ([2]; first series): 1.02
- normalized signal at concentration 0.0411523 ([2]; first series): 1.04
- normalized signal at concentration 0.123457 ([2]; first series): 0.97
- normalized signal at concentration 0.37037 ([2]; first series): 0.92
- normalized signal at concentration 1.11111 ([2]; first series): 1.13
- normalized signal at concentration 3.33333 ([2]; first series): 0.83
- IC50 ([2]; sheet 2nd round, dose response): > 10 µM
- normalized signal at concentration 10 [2, 6]: 0.51
- normalized signal at concentration 0.000508053 ([2]; second series): 1.07
- normalized signal at concentration 0.00152416 ([2]; second series): 0.85
- normalized signal at concentration 0.00457247 ([2]; second series): 1.01
- normalized signal at concentration 0.0137174 ([2]; second series): 0.97
- normalized signal at concentration 0.0411523 ([2]; second series): 1.21
- normalized signal at concentration 0.123457 ([2]; second series): 1.03
- normalized signal at concentration 0.37037 ([2]; second series): 1.11
- normalized signal at concentration 1.11111 ([2]; second series): 0.90
- normalized signal at concentration 3.33333 ([2]; second series): 0.91
- PbLuc_max_inhibition (%) [2, 4]: 49%

Structure (SMILES): C[C@H](CO)N1C[C@H](C)[C@@H](CN(C)S(=O)(=O)c2ccc(F)cc2)OCCCC[C@H](C)Oc2ccc(N(C)C)cc2C1=O [BRD-K31169989-001-01-4]
- IC50 ([1]; sheet "2nd round"): > 10 µM
- Tox_max_inhibition (%) ([1]; sheet "2nd round"): 13%
- normalised signal at concentration 0.000508053 (first series) [2]: 0.9593
- normalised signal at concentration 0.000508053 (second series) [2]: 1.075
- normalised signal at concentration 0.00152416 (first series) [2]: 0.7705
- normalised signal at concentration 0.00152416 (second series) [2]: 0.9043
- normalised signal at concentration 0.00457247 (first series) [2]: 0.8601
- normalised signal at concentration 0.00457247 (second series) [2]: 0.8661
- normalised signal at concentration 0.0137174 (first series) [2]: 0.7407
- normalised signal at concentration 0.0137174 (second series) [2]: 1.136
- normalised signal at concentration 0.0411523 (first series) [2]: 1.052
- normalised signal at concentration 0.0411523 (second series) [2]: 0.8649
- normalised signal at concentration 0.123457 (first series) [2]: 0.7251
- normalised signal at concentration 0.123457 (second series) [2]: 0.9568
- normalised signal at concentration 0.37037 (first series) [2]: 0.9029
- normalised signal at concentration 0.37037 (second series) [2]: 0.9798
- normalised signal at concentration 1.11111 (first series) [2]: 0.7471
- normalised signal at concentration 1.11111 (second series) [2]: 0.8642
- normalised signal at concentration 3.33333 (first series) [2]: 0.9659
- normalised signal at concentration 3.33333 (second series) [2]: 0.7643
- normalised signal at concentration 10 (first series) [2]: 0.5392
- normalised signal at concentration 10 (second series) [2]: 0.607
- IC50 [2, 3]: > 10 µM
- PbLuc_max_inhibition (%) ([2]; sheet "2nd round"): 46%
